Measurements taken from patent publication US6472418B1, “Non-peptide NK1 receptors antagonists” (Warner-Lambert Company, priority 1998, dated 2002).

biological target: T1, Human NK1 Receptor (Homo sapiens, UniProt P25103); assay: In Vitro Human NK1 Receptor Binding Assay ([125I]Bolton-Hunter substance P displacement, IM9 cells); conditions: Human lymphoma IM9 cells, [125I]Bolton-Hunter substance P (0.05-0.1 nM), 50 min at 21° C.; Table 1; read-out: NK1 binding IC50
T1 construct: endogenous in cells; host or cells: Human lymphoma IM9 cells (whole cells)
Description: They have been evaluated in an NK1-receptor binding assay which is described below.
Human lymphoma IM9 cells were grown in RPMI 1640 culture medium supplemented with 10% fetal calf serum and 2 mM glutamine and maintained under an atmosphere of 5% CO2. Cells were passaged every 3-4 days by reseeding to a concentration of 4-8×10^6/40 ml per 175 cm^2 flask. Cells were harvested for experiments by centrifugation at 1000 g for 3 min. Pelleted cells were washed once by resuspension into assay buffer (50 mM Tris HCl pH 7.4, 3 mM MnCl2, 0.02% BSA, […] bacitracin, […] chymostatin, 2 mM phosphoramidon, […] leupeptin) and repeating the centrifugation step before resuspending at a concentration of 2.5×10^6 cells/mL assay buffer. Cells ([…]) were incubated with [^125I]Bolton-Hunter substance P (0.05-0.1 nM) in the presence and absence of varying concentrations of test compounds for 50 min at 21° C. Non-specific binding (10% of the total binding observed under these conditions) was defined by […] [Sar^9, Met(02)^11] substance P. Reactions were terminated by rapid filtration under vacuum onto GF\C filters presoaked in 0.2% PEI for 1-2 h, using a Brandel cell harvester. Filters were washed with 6×1 ml ice-cold Tris HCl (50 mM, pH 7.4) and radioactivity bound determined using a gamma couter. Results were analyzed using iterative curve fitting procedures in RS1 or Graphpad Inplot.

T1 sequence (P25103 whole entry): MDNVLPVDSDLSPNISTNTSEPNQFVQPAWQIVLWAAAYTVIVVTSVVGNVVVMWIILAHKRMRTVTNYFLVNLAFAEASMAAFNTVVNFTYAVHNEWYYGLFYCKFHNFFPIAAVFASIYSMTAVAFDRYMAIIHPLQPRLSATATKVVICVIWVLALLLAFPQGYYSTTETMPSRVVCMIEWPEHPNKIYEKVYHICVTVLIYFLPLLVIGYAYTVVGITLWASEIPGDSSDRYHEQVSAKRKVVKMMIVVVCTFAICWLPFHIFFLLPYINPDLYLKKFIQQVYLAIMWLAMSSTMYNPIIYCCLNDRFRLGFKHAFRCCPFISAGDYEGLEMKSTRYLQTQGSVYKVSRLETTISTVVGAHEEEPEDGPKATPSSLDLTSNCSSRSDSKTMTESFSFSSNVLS

Row | IC50 [nM] | Compound
1 | 0.7 | C[C@H](NC(=O)[C@@H](Cc1c[nH]c2ccccc12)NCc1cc2ccccc2o1)c1ccccc1 (relative stereo) [Example 6, 2-[(Benzofuran-2-ylmethyl)-amino]-3-(1H-indol-3-yl)-N-(1-phenyl-ethyl)-propionamide, [R-(R*,S*)]]
2 | 27 | Cc1cc(CN[C@H](Cc2c[nH]c3ccccc23)C(=O)N[C@@H](C)c2ccccc2)oc1C (relative stereo) [Example 8, 2-[(4,5-Dimethyl-furan-2-ylmethyl)-amino]-3-(1H-indol-3-yl)-N-(1-phenyl-ethyl)-propionamide, [R-(R*,S*)]]
3 | 14 | C[C@H](NC(=O)[C@@H](Cc1c[nH]c2ccccc12)NCc1ccc(Cl)s1)c1ccccc1 (relative stereo) [Example 12, 2-[(5-Chloro-thiophen-2-ylmethyl)-amino]-3-(1H-indol-3-yl)-N-(1-phenyl-ethyl)-propionamide, [R(R*,S*)]]
4 | 35 | C[C@H](NC(=O)[C@@H](Cc1c[nH]c2ccccc12)NCc1cccc(SC(F)(F)F)c1)c1ccccc1 (relative stereo) [Example 13, 3-(1H-Indol-3-yl)-N-(1-phenyl-ethyl)-2-(3-trifluoromethylsulfanyl-benzylamino)-propionamide, [R-(R*,S*)]]
5 | 4.7 | C[C@H](NC(=O)[C@@H](Cc1c[nH]c2ccccc12)NCc1cccc(C#N)c1)c1ccccc1 (relative stereo) [Example 14, 2-(3-Cyano-benzylamino)-3-(1H-indol-3-yl)-N-(1-phenyl-ethyl)-propionamide, [R-(R*,S*)]]
6 | > 10000 | C[C@H](NC(=O)[C@@H](Cc1c[nH]c2ccccc12)NCc1cccc([N+](=O)[O-])c1)c1ccccc1 (relative stereo) [Example 15, 3-(1H-Indol-3-yl)-2-(3-nitro-benzylamino)-N-(1-phenyl-ethyl)-propionamide, [R-(R*,S*)]]

same assay, conditions: Table 4; [125I]Bolton-Hunter substance P displacement, human IM9 cells; read-out: IC50 (nM) hNK1

Row | Compound | IC50 [nM]
7 | 2-(2,3-Diphenyl-allylamino)-3-(1H-indol-3-yl)-2-methyl-N-(1-phenyl-ethyl)-propionamide [compound 338] | > 10000
8 | 2-(3-Benzo[1,3]dioxol-5-yl-allylamino)-3-(1H-indol-3-yl)-2-methyl-N-(1-phenyl-ethyl)-propionamide [compound 339] | 343
9 | 2-(4-Benzyloxy-benzylamino)-3-(1H-indol-3-yl)-2-methyl-N-(1-phenyl-ethyl)-propionamide [compound 341] | > 10000
10 | 2-(4-Chloro-3-sulfamoyl-benzylamino)-3-(1H-indol-3-yl)-2-methyl-N-(1-phenyl-ethyl)-propionamide [compound 336] | 4230
11 | 2-[3-(4-Benzyloxy-phenyl)-allylamino]-3-(1H-indol-3-yl)-2-methyl-N-(1-phenyl-ethyl)-propionamide [compound 340] | 4910
12 | 3-(1H-Indol-3-yl)-2-methyl-N-(1-phenyl-ethyl)-2-[4-(2-pyrrolidin-1-yl-ethoxy)-benzylamino]-propionamide [compound 335] | > 10000
13 | 3-(1H-Indol-3-yl)-2-methyl-N-(1-phenyl-ethyl)-2-[4-(4-phenyl-piperidin-1-yl)-benzylamino]-propionamide [compound 334] | > 10000
14 | 3-(1H-Indol-3-yl)-2-methyl-N-(1-phenyl-ethyl)-2-[(pyridin-4-ylmethyl)-amino]-propionamide [compound 313] | 50
15 | 3-(1H-Indol-3-yl)-2methyl-N-(1-phenyl-ethyl)-2-[(1-phenyl-1H-indol-2-ylmethyl)-amino]-propionamide [compound 333] | 3610
16 | 4-{[2-(1H-Indol-3-yl)-1-methyl-1-(1-phenyl-ethylcarbamoyl)-ethylamino]-methyl}-benzoic acid methyl ester [compound 337] | 1920

same assay, conditions: Table 5; [125I]Bolton-Hunter substance P displacement, human IM9 cells; read-out: IC50 (nM) hNK1

Row | Compound | IC50 [nM]
17 | 2-(2,3-Diphenyl-allylamino)-3-(1H-indol-3-yl)-2-methyl-N-(1-phenyl-ethyl)-propionamide [compound 338] | > 10000

same assay, conditions: human NK1 receptor, IM9 cells, [125I]Bolton-Hunter substance P; read-out: IC50 (nM) hNK1

Row | Compound | IC50 [nM]
18 | 2-[(Benzofuran-2-ylmethyl)-amino]-N-(5-hydroxy-4-oxo-4H-pyran-2-ylmethyl)-3-(1H-indol-3-yl)-2-methyl-propionamide [compound 164] | > 10000
